Test results reported in patent publication US20240225971A1 (Genomatica, Inc., priority 2021, published 2024).
≈ marks a conversion by molar mass, not a printed value. Like-named read-outs stand apart in the source and are kept apart here.

Columns and labels:
microorganisms = experiment: Minimum Inhibitory Concentration (MIC) testing; assay type: cell-based; conditions: concentration completely inhibiting microbial growth
[1] = Water solubility at 25° C. of fragrance ingredients
Excerpt: (§1) Also included is the molecular weight of each of the fragrance ingredients. Not determinable (ND).

physchem = experiment: physchem
Excerpt: The term “fragrance composition” or “composition,” as used herein, represents a composition containing one or more fragrance ingredients described here and formulated with a physiologically acceptable diluent or solvent, used interchangeably here. In a fragrance composition, or composition that has a fragrance, such as a perfume, 20%-40% of the observable liquid may be comprised of a diluent, i.e., the delivery system for scents of the fragrance ingredients. The “log P” value, as used here, indicates whether a substance or fragrance ingredient will be absorbed by humans, animals, plants, or living tissue; diffused or disseminated by water.
as §1

[2] = Vapor pressure of fragrance ingredients
Excerpt: as §1

[3] = Flash point of fragrance ingredients; assay type: physicochemical
Excerpt: as §1

[4] = Clarity of fragrance ingredient in bioderived 1,3-BG by visual observation
Procedure: Clarity for each of the fragrance ingredients (10% in bioderived 1,3-BG) was determined by visual observations after compounding and blending the fragrance ingredient with bioderived 1,3-BG and identified as clear, slightly haze, cloudy, particles, or separation.
Clarity for each of the fragrance ingredients (at 1% in bioderived 1,3-BG) was determined by visual observations after compounding and blending the fragrance ingredient with bioderived 1,3-BG and identified as clear, slightly haze, cloudy, particles, or separation.

[5] = 10% ingredient in bioderived 1,3-BG, clear, slightly haze, cloudy, particles, or separation

Row | Molecule | Water Solubility ([1]; 25° C.) [µg/mL] | logP (physchem) | Vapor Pressure [2] [mm hg] | Flash Point [3] [°C] | Clarity 10% [4, 5] | also measured
1 | OCCCO [1,3-PG, 1,3-Propylene Glycol] | – | – | – | – | – | MIC A. brasiliensis (microorganisms; A. brasiliensis): >350 mg/mL; MIC C. albicans (microorganisms; C. albicans): 250 mg/mL (≈ 3290 mM); MIC E. coli (microorganisms; E. coli): 225 mg/mL (≈ 2960 mM); MIC P. aeruginosa (microorganisms; P. aeruginosa): 200 mg/mL (≈ 2630 mM); MIC S. aureus (microorganisms; S. aureus): 300 mg/mL (≈ 3940 mM)
2 | CCCCCCCCCC=O [Aldehyde C-10] | 43.520 | 3.97 | 0.207 | 82 | – | –
3 | C=CCCCCCCCCC=O [Aldehyde C-11 Undecylenic] | 30.000 | 4.072 | 0.039 | 76 | – | –
4 | CCCCCCCCCCCC=O [Aldehyde C-12 Lauric] | 4.649 | 4.989 | 0.034 | 116 | Clear | –
5 | CCCCCCCCCC(C)C=O (stereo not drawn) [Aldehyde C-12 MNA] | 5.372 | 4.834 | 4.834 | 69 | Clear | –
6 | C=CCOC(=O)COCCC(C)C [Allyl Amyl Glycolate] | 510.700 | 2.7 | 0.04 | 93 | – | –
7 | CC1(O)CCC2C(=CCCC2(C)C)C1 (stereo not drawn) [Ambrinol] | – | 3.785 | 0.0005 | 100 | Clear | Water Solubility [1]: 134.300 µg/mL
8 | CC1(C)CCC[C@]2(C)[C@H]3CCO[C@]3(C)CC[C@@H]12 [Ambrox Super (Ambroxan), Ambroxan] | – | – | 0.009 | 100 | Particles | –
9 | CC=Cc1ccc(OC)cc1 [Anethole] | – | – | 0.069 | 110 | Cloudy | –
10 | COc1ccc(C=O)cc1 [Anisic Aldehyde] | – | – | 1 | 116 | Clear | Water Solubility [1]: 4290.000 µg/mL
11 | COc1ccc(COC(C)=O)cc1 [Anisyl Acetate] | 782.900 | 1.887 | 0.021 | 135 | – | Clarity 1% [4]: Clear; Clarity 10% [4]: Clear
12 | CC/C(=C\CC1CC=C(C)C1(C)C)CO (stereo not drawn) [Bacdanol] | 17.000 | 4.3 | 0.00028 | 199 | Clear | –
13 | CC(=O)OCc1ccccc1 [Benzyl Acetate] | – | – | 0.177 | 91 | Clear | –
14 | CC1C(C)(C)C2=C(C(=O)CCC2)C1(C)C (stereo not drawn) [Cashmeran] | 5.937 | 4.5 | 0.003 | 94 | Clear | –
15 | N#C/C=C/c1ccccc1 [Cinnamalva] | – | 1.84 | 0.023 | 94 | Clear | Water Solubility [1]: 1067.000 µg/mL
16 | CC/C=C\CCO [Cis-3-Hexenol] | – | 1.7 | 1.039 | 44 | Clear | –
17 | CC/C=C\CCOC(=O)c1ccccc1O [Cis-3-Hexenyl Salicylate] | – | 4.4 | 0.000246 | 110 | Cloudy | solubility ([1]; water, 25 °C): 9.52 µg/mL (≈ 0.0432 mM)
18 | CC(C)=CCCC(C)=CC=O [Citral] | – | – | 0.2 | 98 | Clear | –
19 | CC1=CC(C)C(C=O)CC1 (stereo not drawn) [Cyclal C/Triplal] | – | 3 | 0.578 | 66 | Clear | Water Solubility [1]: 311.500 µg/mL
20 | c1ccc(COCc2ccccc2)cc1 [Dibenzyl Ether] | – | 3.31 | 0.00103 | 93 | Cloudy | solubility ([1]; water, 25 °C): 40 µg/mL (≈ 0.202 mM)

Row | Molecule | Water Solubility ([1]; 25° C.) [µg/mL] | logP (physchem) | Vapor Pressure [2] [mm hg] | Flash Point [3] [°C] | Clarity 10% [4, 5] | also measured
21 | C=CC(C)CCCC(C)(C)O (stereo not drawn) [Dihydro Myrcenol] | 252.200 | 2.99 | 0.166 | 76 | Clear | –
22 | CC(C)CCCC(C)(C)O [Dimetol] | 777.000 | 2.976 | 0.33 | 63 | Clear | –
23 | CCOc1cc(C=O)ccc1O [Ethyl Vanillin] | – | – | 0.001 | 127 | Clear | Water Solubility [1]: 2820.000 µg/mL
24 | O=C1CCCCCCCCCCCC(=O)OCCO1 [Ethylene Brassylate] | – | 2.77 | 0 | 110 | Cloudy | solubility ([1]; water, 25 °C): 1.72 µg/mL (≈ 0.00636 mM)
25 | CC12CCC(CC1)C(C)(C)O2 [Eucalyptol] | – | 2.74 | 1.9 | 50 | Clear | solubility ([1]; water, 25 °C): 3500 µg/mL (≈ 22.7 mM)
26 | CCOC(=O)CC1(C)OCCO1 [Fructone] | 100.000 | 0.982 | 0.219 | 93 | Clear | –
27 | CC1COCc2cc3c(cc21)C(C)(C)C(C)C3(C)C (stereo not drawn) [Galaxolide] | – | 5.92 | 0.000414 | 104 | Separation | solubility ([1]; 25 °C, water): 0.194 µg/mL (≈ 0.000751 mM)
28 | O=Cc1ccc2c(c1)OCO2 [Heliotropine] | – | 1.05 | 0.003 | 110 | – | Water Solubility [1]: 3500.000 µg/mL; Clarity 1% [4]: Clear; Clarity 10% [4]: Clear
29 | CC(=O)C1(C)CC2=C(CCCC2(C)C)CC1C (stereo not drawn) [Iso E Super] | – | 4.71 | 0.001 | 111 | Cloudy | –
30 | CC(=O)OCCC(C)C [Isoamyl Acetate] | 2000.000 | – | 5.6 | 38 | Clear | –
31 | C=CC(C)(O)CCC=C(C)C (stereo not drawn) [Linalool] | – | – | 0.016 | 75 | Clear | –
32 | C=CC(C)(CCC=C(C)C)OC(C)=O (stereo not drawn) [Linalyl Acetate] | – | 3.93 | 0.116 | 94 | – | solubility ([1]; 25 °C, water): 20.1 µg/mL; Clarity 1% [4]: Clear
33 | CC(=O)C(C)=CC1C(C)=CCCC1(C)C (stereo not drawn) [Methyl Ionone Gamma] | – | 4.315 | 0.006 | 110 | Cloudy | Water Solubility [1]: 2.980 µg/mL
34 | CC1CC=CCCCCCCCCCC(=O)C1 (stereo not drawn) [Muscenone] | 0.346 | 4.88 | 0.1 | 100 | Cloudy | –
35 | C=C(C)[C@@H]1CCC2=CC(=O)C[C@@H](C)[C@]2(C)C1 [Nootkatone] | – | 3.77 | 0.000358 | 110 | Clear | solubility ([1]; 25 °C, water): 2.38 µg/mL (≈ 0.0109 mM)
36 | CCC(CC)C(=O)N(C)c1cccc(C)c1 [Paradisamide] | 46.430 | 3.295 | 0.0038 | 138 | Clear | –
37 | CC(=O)OC(C)(C)C1CC=C(C)CC1 (stereo not drawn) [Terpinyl Acetate] | 18.970 | 3.59 | 0.058 | 100 | – | Clarity 1% [4]: Clear
38 | COc1cc(C=O)ccc1O [Vanillin] | – | – | 0.002 | 153 | Clear | solubility ([1]; water, 25 °C): 6880 µg/mL (≈ 45.2 mM)
39 | CC(=O)C1=C(C)C2CC3(C1)C(C)CCC3C2(C)C (stereo not drawn) [Vertofix Coeur] | – | 5.6 | 0.000084 | 100 | Cloudy | –
40 | Caryophyllene | 0.050 | 6.3 | 0.013 | 16 | – | Clarity 1% [4]: Slightly Haze; Clarity 10% [4]: Cloudy
